Test results taken from article PMC9700480 (Drug Design, Development and Therapy, 2022).

Tested on: alloxan-induced diabetic mice
Experiment: In vivo anti-diabetic activity in alloxan-induced diabetic mice
Set-up: species or system albino mice (strain balb/c)

For C[C@H]1O[C@H](O[C@H]2[C@H](O)[C@@H](O)[C@@H](O[C@H]3[C@H](O)[C@@H](O)C(O)O[C@@H]3CO)O[C@@H]2CO)[C@H](O)[C@@H](O)[C@@H]1N[C@H]1C=C(CO)[C@@H](O)[C@H](O)[C@H]1O (some centres unmarked) [Acarbose], the Creatinine content (day 21, compared with diabetic control) was “significant (p < 0.05) decrease in creatinine content” and the “level of insulin in serum” value (day 21, FA2 at high dose) was 25 ± 3.1 pmol/L.
